Laboratory results: patent US20250032530A1, “USE OF AURANOFIN AS AN INHIBITOR OF ATYPICAL PROTEIN KINASE C FOR TREATMENT OF NEURODEGENERATIVE DISORDERS” (UNIVERSITY OF SOUTH FLORIDA, priority 2021, published 2025)
Where two headings read alike, the source gives them in different places.

Legend:
[1] = PO; cited from earlier work
BACE1 [2] = assay: BACE1 levels in LA1-5s neuronal cells treated with insulin; format: cell-based, human; conditions: 200 nM insulin, 24 hours; increasing concentrations of ICAPP
Procedure: Values of BACE1 are Mean±SEM of 4 values. Asterisks indicate P<0.05 for comparison of designated group versus the untreated control group (ANOVA).
(§1) LA1-5s neuronal cells were originally obtained from non-catecholamine-producing neuroblastoma of a person and are commercially available from the European Collection of Authenticated Cell Cultures. Incubation conditions were as described.
(§2) As described, western analyses were conducted with rabbit antisera, using: anti-aPKC [recognizes a C-terminal sequence in all aPKCs (Santa Cruz Biotechnologies, Santa Cruz, CA, USA)]; anti-phospho-threonine (thr)-560/555-PKC-ζ/λ/ι [recognizes a phosphopeptide sequence present in all aPKCs and indicates activation (Invitrogen, Carlsbad, CA, USA)]; anti-phospho-serine (ser)-473-Akt [recognizes a phosphopeptide sequence at 60 kDa present in all Akt's-1/2/3 and indicates activation (Cell Signaling Technologies, Danvers, MA, USA)]; anti-4 kDa-AP1-40/42 (Cell Signaling Technologies, Danvers, MA, USA); anti-mouse-70 kDa-BACE1 and anti-human-70 kDa-BACE1 (ThermoFisher); and anti-phospho-threonine (thr)-231-tau (Gene Tex, Irvine, CA, USA). Samples from all experimental groups within each study were compared on the same blots and routinely checked with loading controls. All comparisons in histograms were made relative to the mean value of the basal control group, i.e., wild-type mice consuming standard low-fat mouse chow, untreated with insulin or aPKC inhibitors, and having normal levels of aPKCs and other cellular proteins.

NFκB = assay: Insulin-induced NFκB activity in LA1-5s neuronal cells; format: cell-based, human; conditions: 200 nM insulin, 24 hours; 1 μM ACPD, increasing concentrations of auranofin
Source text: (§3) Cell lysates were subjected to Western analyses for phosphorylated/activated forms of aPKC, NFκB and Akt. Representative blots of indicated proteins are shown in upper bands. […] Bargrams show Mean±SEM of 3-4 determinations. Asterisks indicate P<0.05; comparison of designated group versus the uninhibited, insulin-treated group (ANOVA).
as §1
as §2, with “Samples from all experimental groups within each study were compared on the same blots and routinely checked with loading controls. All comparisons in histograms were made relative to the mean value of the basal control group, i.e., wild-type mice consuming standard low-fat mouse chow, untreated with insulin or aPKC inhibitors, and having normal levels of aPKCs and other cellular proteins.” left out

Akt = assay: Insulin-induced Akt activation in LA1-5s neuronal cells; format: cell-based, human; conditions: 200 nM insulin, 24 hours
Source text: as §3, §1
as §2, with “Samples from all experimental groups within each study were compared on the same blots and routinely checked with loading controls. All comparisons in histograms were made relative to the mean value of the basal control group, i.e., wild-type mice consuming standard low-fat mouse chow, untreated with insulin or aPKC inhibitors, and having normal levels of aPKCs and other cellular proteins.” left out

[3] = test system: non-sensitive cancer cells; conditions: read-out: cytotoxicity activity (IC50); cited from earlier work
sensitive cancer cells = conditions: read-out: cytotoxicity activity (IC50); cited from earlier work
PKCι and PKCζ = conditions: cited from earlier work
CA-125 = conditions: oral administration, 10 patients; cited from earlier work
70 kDa PKC-λ/ι = target: T1, 70 kDa PKC-λ/ι (Mus musculus, UniProt Q62074); assay: 70 kDa PKC-λ/ι activity (p-thr-555/560-aPKC, Western) in brain and liver of normal mice given ICAP nasally or IV; format: in vivo
T1 construct: from tissue; host or cells: mouse brain and liver
T1 sequence (Q62074 1-595): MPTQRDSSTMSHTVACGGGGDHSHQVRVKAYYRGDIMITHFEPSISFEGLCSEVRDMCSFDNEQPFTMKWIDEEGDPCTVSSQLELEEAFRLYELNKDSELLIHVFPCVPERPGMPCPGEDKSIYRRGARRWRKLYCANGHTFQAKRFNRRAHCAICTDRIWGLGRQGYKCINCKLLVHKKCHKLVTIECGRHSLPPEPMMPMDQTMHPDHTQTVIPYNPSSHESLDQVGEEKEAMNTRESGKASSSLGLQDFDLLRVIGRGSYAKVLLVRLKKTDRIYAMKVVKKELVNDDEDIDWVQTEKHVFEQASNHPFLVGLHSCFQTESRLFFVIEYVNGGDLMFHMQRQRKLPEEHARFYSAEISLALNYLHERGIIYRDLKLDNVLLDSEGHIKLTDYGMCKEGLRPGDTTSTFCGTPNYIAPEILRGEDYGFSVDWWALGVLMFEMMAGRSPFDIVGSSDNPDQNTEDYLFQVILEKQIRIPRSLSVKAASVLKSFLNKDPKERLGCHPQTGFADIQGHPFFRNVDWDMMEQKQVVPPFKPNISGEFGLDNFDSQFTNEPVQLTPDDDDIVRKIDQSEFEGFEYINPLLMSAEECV

[4] = Distribution and passage of the blood brain barrier; format: in vivo; conditions: published and prelim PK/PD studies
Procedure: aPKC Inhibitors. We identified by HTS compounds that target the substrate-binding site of aPKCs and potently (IC50s10-30 nM) inhibit recombinant PIP3-dependent aPKCs, but not DAG-dependent PKCs. Three compounds have been studied in detail: (a) 1H-imidazole-4-carboxamide, 5-amino-1-[2,3-dihydroxy-4-[(phosphono-oxy)methyl]cyclopentyl-[1R-(1a,2b,3b,4a)] […] Thus, these agents can reduce brain aPKC activity, indirectly at lower doses by inhibiting liver aPKC and correcting hyperinsulinemia in insulin-resistant states, and, at higher doses, by acting directly on brain PKC-λ/ι.

BACE1 [5] = assay: BACE1 protein and mRNA levels in brain and liver of normal mice given ICAP nasally or IV; format: in vivo, mouse
Procedure: Values are mean±SEM of 6 mice/group. P values, (ANOVA).
Values are mean±SEM of 6 mice/group.
As described, samples from mouse brains that were flash-frozen in liquid N2 and stored at −80° C. were homogenized in buffer containing 0.25M sucrose, 20 mM Tris/HCl (pH, 7.5), 2 mM EGTA, 2 mM EDTA, 1 mM phenyl-methyl-sulfonyl-fluoride, 20 μg/ml leupeptin, 10 μg/ml aprotinin, 2 mM Na4P2O7, 2 mM Na3VO4, 2 mM NaF, and 1 μM microcystin, and then supplemented with 1% TritonX-100, 0.6% Nonidet and 150 mM NaCl.
as §2

Tg APP/PS1 AD mice = assay: Memory tests (Novel Object Recognition, RAWM) in transgenic APP/PS1 AD mice given oral ICAP; format: in vivo, mouse; conditions: PO 100 mg/kg/day × 3 months
Procedure: Radial Arm Water Maze (RAWM) assesses learning and spatial memory and requires hippocampal and frontal cortical areas. The maze consisted of a circular pool filled with opaque water, with 6 arms radiating from a central area. On each training day, mice were released to swim and find a submerged escape platform at the end of a goal arm, utilizing extra-maze cues to form a spatial representation. On each day, there were 4 consecutive acquisition trials of no more than 1 minute each. […] If the animal made an error, it was returned to the start arm in a restart procedure. After the last acquisition trial, the animal was dried and returned to its home cage for 30 min and then given a single retention trial from the same start arm to measure short-term spatial memory.

[6] = test system: BACE1 and CKs (TNF-α, IL-1β, IL-6); assay: BACE1 and proinflammatory cytokine levels in APP/PS1 AD mice given oral ICAP; format: in vivo, mouse
Source text: Values are Mean±SEM of results in 10 mice.
As alluded to, resting PKC-λ/ι activity was increased by approx. 40% in brains of Tg APP/PS1 AD mice, relative to normal WT mice (FIG. 17).

[7] = IV and PO, 200 mg/kg body weight; cited from earlier work
[8] = test system: aPKC, Akt2, AMP-activated kinase (AMPK), FoxO1; conditions: isolated human hepatocytes; cited from earlier work
50 kDa PKMζ = target: T2, 50 kDa PKMζ (Mus musculus, UniProt Q02956); assay: 50 kDa PKMζ activity in brain of normal mice given nasal ICAP; format: in vivo; conditions: 100 mg/kg/day, 3 weeks
T2 construct: from tissue; host or cells: mouse brain
T2 sequence (Q02956 1-409 isoform Q02956-2): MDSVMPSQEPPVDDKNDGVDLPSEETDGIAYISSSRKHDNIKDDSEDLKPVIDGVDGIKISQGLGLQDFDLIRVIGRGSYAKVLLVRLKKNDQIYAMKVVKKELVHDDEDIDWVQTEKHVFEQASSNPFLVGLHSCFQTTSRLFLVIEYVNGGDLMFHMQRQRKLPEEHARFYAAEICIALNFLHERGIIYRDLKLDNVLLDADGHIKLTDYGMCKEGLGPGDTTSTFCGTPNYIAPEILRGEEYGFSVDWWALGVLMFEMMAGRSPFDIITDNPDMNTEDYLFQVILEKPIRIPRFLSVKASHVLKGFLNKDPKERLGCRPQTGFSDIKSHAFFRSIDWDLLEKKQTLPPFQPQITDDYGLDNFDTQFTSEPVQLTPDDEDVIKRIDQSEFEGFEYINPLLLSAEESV

[9] = test system: Aβ-peptides and Aβ-plaque; assay: AD pathology (Aβ-peptides by ELISA, Aβ-plaque load) in transgenic APP/PS1 AD mice given ICAP; format: in vivo, mouse
PKC-λ/ι = target: T3, PKC-λ/ι (Mus musculus, UniProt Q62074); conditions: cited from earlier work
T3 sequence (Q62074 1-595): T1 sequence (Q62074 1-595)

aPKC = conditions: cited from earlier work
[10] = nasal, 100 mg/kg/day, 3 weeks, brain
[11] = PO 100 mg/kg/day × 3 months, brain
[12] = mouse, in vivo, po, 100 mg/kg/day

CC(=O)OC[C@H]1O[C@@H]([S-])[C@H](OC(C)=O)[C@@H](OC(C)=O)[C@@H]1OC(C)=O.CCP(CC)CC.[Au+] [auranofin, 1-thio-β-D-glucopyranosatotriethylphosphine gold-2,3,4,6-tetraacetate]
passage of the BBB [1]: known to cross the BBB | insulin-induced increase in BACE1 levels (BACE1 [2]): diminished | insulin-induced increase in NFκB activity (NFκB): diminished | insulin-induced Akt activation (Akt): not Akt activation | IC50 [3]: > 40 µM | IC50 (sensitive cancer cells): ≤ 10 µM | inhibition of PKCι and PKCζ signaling by targeting the PB1 domain (PKCι and PKCζ): inhibits PKCι and PKCζ signaling | insulin activation of aPKC (PB1 site) (PKCι and PKCζ): inhibit insulin activation of aPKC | levels of CA-125 (CA-125): decreased levels of CA-125 in one patient

NC(=O)c1ncn(C2CC(CO)C(O)C2O)c1N (centres unmarked) [ICAP]
decrease of brain PKC-λ/ι (aPKC) activity (70 kDa PKC-λ/ι; IV, 100 mg/kg/day × 7 days, normal mice, brain): 50-60% | inhibition of PKC-λ versus PKMζ (70 kDa PKC-λ/ι; mouse brain): inhibits PKC-λ, but not PKMζ | inhibition of brain 70 kDa PKC-λ/ι (aPKC) activity (70 kDa PKC-λ/ι; nasal, 100 mg/kg/day, 3 weeks, normal mice, brain): 70-80% | passage of the BBB [4]: clearly passes the BBB and enters the brain | tissue distribution [4]: preferentially distributes to liver | decrease of brain BACE1 levels (BACE1 [5]; IV, 100 mg/kg/day × 7 days, brain): 50-60% | decrease of liver BACE1 levels (BACE1 [5]; IV, 100 mg/kg/day × 7 days, liver): approximately 90% | decrease of brain BACE1 mRNA levels (BACE1 [5]; [10]): approximately 50% | decrease of brain BACE1 protein levels (BACE1 [5]; [10]): approximately 50% | memory function, Novel Object Recognition (NOR) test (Tg APP/PS1 AD mice): restored memory functions | memory function, RAWM test (Tg APP/PS1 AD mice; not shown): restored memory functions | liver BACE1 levels ([6]; PO 100 mg/kg-bw daily, liver): diminished | brain levels of BACE1 [6, 11]: diminished | brain levels of CKs (TNF-α, IL-1β, IL-6) [6, 11]: diminished | ICAP uptake over 24 hours, liver versus brain [7]: substantially greater in liver than in brain | FoxO1 phosphorylation/inactivation [8]: increase FoxO1 phosphorylation/inactivation | inhibition of aPKC, Akt2, AMPK [8]: inhibit aPKC but not Akt2 or AMP-activated kinase (AMPK) | brain 50 kDa PKMζ activity (50 kDa PKMζ): not altered | reduction of Aβ-plaque load ([9]; PO 100 mg/kg/day × 3 months, APP/PS1 AD mice): approx. 70% | Aβ40 levels [9, 12]: reduced | Aβ42 levels [9, 12]: reduced | AD pathological and functional aberrations ([9]; nasal ICAP, APP/PS1 AD mice, not shown): corrected AD pathological and functional aberrations | effect on LTP and LTM (PKC-λ/ι): lack of effect | inhibition of brain aPKC (aPKC; at higher doses): inhibit brain aPKC | effectiveness in brain (aPKC; given per os (PO), nasally, SC): effective in brain | aPKC inhibition in liver, muscle, adipose tissue (aPKC; intact mice, employed doses): inhibit aPKC in liver, but not in muscle or adipose tissue
